Biological target: T1, GST-tagged ROR gamma ligand binding domain (LBD) (Homo sapiens, UniProt P51449)
T1 construct: purchased Invitrogen
T1 sequence (P51449 269-508 limits assumed): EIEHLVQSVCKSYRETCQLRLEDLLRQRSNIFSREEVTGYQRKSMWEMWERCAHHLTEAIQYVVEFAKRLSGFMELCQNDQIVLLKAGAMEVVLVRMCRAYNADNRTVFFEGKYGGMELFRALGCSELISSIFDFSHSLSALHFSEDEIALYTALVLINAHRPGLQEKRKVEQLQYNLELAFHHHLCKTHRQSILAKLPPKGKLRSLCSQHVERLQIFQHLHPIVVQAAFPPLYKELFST
Experiment: TR-FRET assay for ROR gamma (LanthaScreen co-activator peptide recruitment)
Type: biochemical
Conditions: for inhibition at 1 µM: compound concentration 1 μM; for inhibition at 1 µM / inhibition at 10 µM: TR-FRET ratio 520/495, percent of control; for inhibition at 10 µM: compound concentration 10 μM; for IC50: from dose response curve, nonlinear regression, read-out: IC50 range
Excerpt: The compounds described herein were screened for ROR gamma modulator activity using the TR-FRET assay (LanthaScreen™ available from Invitrogen of Carlsbad, Calif.) as described in JBC 2011, 286, 26: 22707-10; and Drug Metabolism and Disposition 2009, 37, 10: 2069-78.
Binding of the co-activator peptide, causes an increase in the TR-FRET signal while binding of an antagonist decreases the recruitment of the co-activator peptide, causing a decrease in the TR-FRET signal compared to control with no compound. The assay was performed using a two-step procedure, pre-incubation step with the compound followed by the detection step on addition of the anti-GST tagged terbium (Tb) and fluorescein tagged fluorophores as the acceptor.
Test compounds or reference compounds such as T0901317 (Calbiochem) were dissolved in dimethylsulfoxide (DMSO) to prepare 10.0 mM stock solutions and diluted to the desired concentration. The final concentration of DMSO in the reaction was 4% (v/v). The assay mixture was prepared by mixing 10 nM of the GST-tagged ROR gamma ligand binding domain (LBD) in the assay buffer containing 25 mM HEPES (pH 7.4), 100 mM NaCl, 5 mM DTT and 0.01% BSA with or without the desired concentration of the compound. The reaction was incubated at 22° C. for 1 hour. The pre-incubation step was terminated by addition of the detection mixture containing 300 nM Fluorescein-D22 co-activator peptide and 10 nM lantha screen Tb-anti GST antibody into the reaction mixture.
After shaking for 5 minutes the reaction was further incubated for 1 hour at room temperature and read at 4° C. on an Infinite F500 reader as per the kit instructions (Invitrogen). The inhibition of test compound was calculated based on the TR-FRET ratio of 520/495. The activity was calculated as a percent of control reaction. IC50 values were calculated from dose response curve by nonlinear regression analysis using GraphPad Prism software.

CCc1ccccc1-c1nccnc1-c1ccc(NC(=O)Cc2ccc(C(F)(F)[C@@H](C)O)cc2)cc1 [Example 53, (R)-2-(4-(1,1-difluoro-2-hydroxypropyl)phenyl)-N-(4-(3-(2-ethylphenyl)pyrazin-2-yl)phenyl)acetamide]
inhibition at 1 µM: 70.5% | inhibition at 10 µM: 77% | IC50: < 50 nM

CC(O)C(F)(F)c1ccc(CC(=O)Nc2ccc(-c3nccnc3N3CCN(C(=O)C4CC4)CC3)cc2)cc1 (stereo not shown) [Example 54, N-(4-(3-(4-(Cyclopropanecarbonyl)piperazin-1-yl)pyrazin-2-yl)phenyl)-2-(4-(1,1-difluoro-2-hydroxypropyl)phenyl)acetamide]
inhibition at 1 µM: 23.1% | inhibition at 10 µM: 42.4%

CCC(F)(F)c1ccc(CC(=O)Nc2ccc(-c3nccnc3N(C)c3ccc(Cl)cc3)cc2)cc1 [Example 55, N-(4-(3-((4-Chlorophenyl)(methyl)amino)pyrazin-2-yl)phenyl)-2-(4-(1,1-difluoropropyl)phenyl)acetamide]
inhibition at 1 µM: 56.5% | inhibition at 10 µM: 64.6%

CCC(F)(F)c1ccc(CC(=O)Nc2ccc(-c3nccnc3N(C)Cc3ccccc3)cc2)cc1 [Example 56, N-(4-(3-(Benzyl(methyl)amino)pyrazin-2-yl)phenyl)-2-(4-(1,1-difluoropropyl)phenyl)acetamide]
inhibition at 1 µM: 73.4% | inhibition at 10 µM: 85.8% | IC50: 100 to 500 nM

CCC(F)(F)c1ccc(CC(=O)Nc2ccc(-c3nccnc3NCc3ccccc3)cc2)cc1 [Example 57, N-(4-(3-(Benzylamino)pyrazin-2-yl)phenyl)-2-(4-(1,1-difluoropropyl)phenyl)acetamide]
inhibition at 1 µM: 69.4% | inhibition at 10 µM: 85.2%

CCC(F)(F)c1ccc(CC(=O)Nc2ccc(-c3nccnc3NC(C)c3ccccc3)cc2)cc1 (stereo not shown) [Example 58, 2-(4-(1,1-Difluoropropyl)phenyl)-N-(4-(3-((1-phenylethyl)amino)pyrazin-2-yl)phenyl)acetamide]
inhibition at 1 µM: 80.3% | inhibition at 10 µM: 90.7% | IC50: 100 to 500 nM

CCC(F)(F)c1ccc(CC(=O)Nc2ccc(-c3nccnc3N[C@H](C)c3ccccc3)cc2)cc1 [Example 59, (R)-2-(4-(1,1-Difluoropropyl)phenyl)-N-(4-(3-((1-phenylethyl)amino)pyrazin-2-yl)phenyl)acetamide]
inhibition at 1 µM: 58.6% | inhibition at 10 µM: 79.7%

CCC(F)(F)c1ccc(CC(=O)Nc2ccc(-c3nccnc3N(C)[C@H](C)c3ccccc3)cc2)cc1 [Example 60, (R)-2-(4-(1,1-Difluoropropyl)phenyl)-N-(4-(3-(methyl(1-phenylethyl)amino)pyrazin-2-yl)phenyl)acetamide]
inhibition at 1 µM: 69.6% | inhibition at 10 µM: 83% | IC50: 100 to 500 nM

CCC(F)(F)c1ccc(CC(=O)Nc2ccc(-c3nccnc3N[C@@H](C)c3ccccc3)cc2)cc1 [Example 61, (S)-2-(4-(1,1-Difluoropropyl)phenyl)-N-(4-(3-((1-phenylethyl)amino)pyrazin-2-yl)phenyl)acetamide]
inhibition at 1 µM: 84.2% | inhibition at 10 µM: 91.4% | IC50: 50 to 100 nM

CCC(F)(F)c1ccc(CC(=O)Nc2ccc(-c3nccnc3N(C)[C@@H](C)c3ccccc3)cc2)cc1 [Example 62, (S)-2-(4-(1,1-Difluoropropyl)phenyl)-N-(4-(3-(methyl(1-phenylethyl)amino)pyrazin-2-yl)phenyl)acetamide]
inhibition at 1 µM: 65.6% | inhibition at 10 µM: 84.8%

CCC(F)(F)c1ccc(CC(=O)Nc2ccc(-c3nccnc3N[C@@H](C)c3ccc(Cl)cc3)cc2)cc1 [Example 63, (S)-N-(4-(3-((1-(4-Chlorophenyl)ethyl)amino)pyrazin-2-yl)phenyl)-2-(4-(1,1-difluoropropyl)phenyl)acetamide]
inhibition at 1 µM: 86.8% | inhibition at 10 µM: 91.2% | IC50: 50 to 100 nM

CCC(F)(F)c1ccc(CC(=O)Nc2ccc(-c3nccnc3N[C@@H](C)c3cccc(Cl)c3)cc2)cc1 [Example 64, (S)-N-(4-(3-((1-(3-Chlorophenyl)ethyl)amino)pyrazin-2-yl)phenyl)-2-(4-(1,1-difluoropropyl)phenyl)acetamide]
inhibition at 1 µM: 76.2% | inhibition at 10 µM: 84.9% | IC50: 100 to 500 nM

Source: patent US10344024B2, “Compounds as ROR gamma modulators” (Glenmark Pharmaceuticals S.A., priority 2015, dated 2019)
